Assay results published in patent US10759826B2, “15β-substituted estrone derivatives as selective inhibitors of 17β-hydroxysteroid-dehydrogenases, method of preparation and use thereof” (USTAV ORGANICKE CHEMIE A BIOCHEMIE AV CR, V.V.I., priority 2016, dated 2020).

Legend:
SK-OV-3 = test: 7 day proliferation assay, SK-OV-3; assay type: cell-based; settings: 1 μmol·l^−1, 7 days
Protocol: (§1) In this study, T47D cells were propagated in RPMI 1640 medium supplemented with 10% fetal bovine serum, 2 mmol^·l^−1 glutaMAX (Thermo Fisher Scientific, MA, USA), and penicillin/streptomycin (Thermo Fisher Scientific, Waltham, USA) and incubated in a 5% CO2-humidified atmosphere at 37° C. to the amount needed for the experiment. Two days prior to testing of compounds, growth medium was changed to medium without phenol red, supplemented with 2 mmol^·l^−1 Glutamax and 4% FBS depleted of lipophilic components (including the endogenous estrogenic substances) (Hyclone, GE Healthcare Life Sciences, USA). Two days after the medium replacement, the cells were harvested, counted and resuspended in a medium. Cells were dispensed with liquid dispenser Multidrop (Thermo Fisher Scientific, Waltham, USA), to the cell culture treated, 12-well plates (Corning Inc., NY, USA) at 100 000 cells/well in 1 mL of total media volume. […] After 7 days of cell cultivation with compounds, cells were harvested and counted. […]
(§2) Compounds 9 and 12 were tested in the proliferation assay with cell lines derived from the triple negative breast cancer (MDA-MB-231), AR-negative prostate cancer (PC3, DU145) and ovarian cancer (SK-OV-3, CaoV-3). […] At the end of the treatment, cells were harvested and counted. […]

DU145 = test: 7 day proliferation assay, DU145; assay type: cell-based; settings: 1 μmol·l^−1, 7 days
Protocol: as §1, §2

PC3 = test: 7 day proliferation assay, PC3; assay type: cell-based; settings: 1 μmol·l^−1, 7 days
Protocol: as §1, §2

[1] = molecular target: T1, estrogen receptor α (ERα) (Homo sapiens, UniProt P03372); test: ERα luciferase reporter assay in U2OS cells; assay type: cell-based; settings: for Emax: U2OS, read-out: efficacy of ERα activation, % of the maximal effect produced by E2; for EC50: agonist mode, U2OS reporter, 24 h; for IC50: antagonist mode, 1 nmol·l^−1 E2
T1 construct: expressed in transfected cells
T1 sequence (P03372 1-595): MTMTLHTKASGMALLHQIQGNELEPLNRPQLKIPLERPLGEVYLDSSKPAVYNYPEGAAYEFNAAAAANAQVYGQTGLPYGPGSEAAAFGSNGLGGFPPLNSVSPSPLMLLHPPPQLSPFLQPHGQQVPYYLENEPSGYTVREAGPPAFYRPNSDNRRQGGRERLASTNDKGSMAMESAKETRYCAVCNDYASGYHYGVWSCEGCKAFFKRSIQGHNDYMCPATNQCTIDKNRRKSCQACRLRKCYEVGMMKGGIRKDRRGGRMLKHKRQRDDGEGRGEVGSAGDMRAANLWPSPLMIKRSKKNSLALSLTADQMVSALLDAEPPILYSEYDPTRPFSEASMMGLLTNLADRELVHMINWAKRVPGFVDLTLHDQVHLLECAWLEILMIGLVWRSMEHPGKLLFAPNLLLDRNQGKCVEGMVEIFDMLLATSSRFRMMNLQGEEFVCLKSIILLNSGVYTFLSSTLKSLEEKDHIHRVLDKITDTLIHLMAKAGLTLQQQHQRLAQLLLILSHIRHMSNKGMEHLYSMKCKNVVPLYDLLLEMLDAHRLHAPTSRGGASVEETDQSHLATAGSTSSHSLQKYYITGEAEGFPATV

U2OS cells = test: Cell viability (ATP) of unmodified U2OS cells, parallel to reporter assay; assay type: cell-based, human; settings: Homo sapiens
Protocol: To separate the antagonist activity of test compounds from the cytotoxic effect on U2OS cells (cell line derived from osteosarcoma), an experiment for determination of cell viability was performed in parallel with the reporter assay. Original, genetically unmodified U2OS cells were grown under the same conditions as the reporter cells. These cells were further treated and incubated with the compounds in a completely identical manner and for the same time as cells in the reporter assay. At the end of the experiment, the amount of ATP was determined using BriteLite luciferase homogeneous assay as a measure of cell viability. The data were then processed together with data from the reporter assays.

human 17βHSD type 5 = molecular target: T2, human 17βHSD type 5 (Homo sapiens, UniProt P42330); test: Inhibition of recombinant 17βHSD type 5, tritium-labeled substrate conversion; assay type: biochemical; settings: 1 μmol · l^−1 test substance
T2 construct: made in house; host or cells: bacteria (Escherichia coli); supernatant of the lysate
T2 sequence (P42330 1-323): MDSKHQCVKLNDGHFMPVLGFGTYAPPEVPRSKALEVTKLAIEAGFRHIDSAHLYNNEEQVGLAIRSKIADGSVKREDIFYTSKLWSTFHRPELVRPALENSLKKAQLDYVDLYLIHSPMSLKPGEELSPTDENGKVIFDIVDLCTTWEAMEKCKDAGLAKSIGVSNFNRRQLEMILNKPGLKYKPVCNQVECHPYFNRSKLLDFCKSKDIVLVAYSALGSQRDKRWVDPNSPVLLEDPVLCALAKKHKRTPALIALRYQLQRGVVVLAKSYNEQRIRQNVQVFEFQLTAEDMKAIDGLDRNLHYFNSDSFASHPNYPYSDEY
Protocol: The inhibitory activity of the test substances was determined for individual isoenzymes from the 17βHSD family, specifically these were the types 1, 2, 3, 4, 5 and 7. Escherichia coli and mammalian cells expression systems were used for recombinant expression of individual isozymes of human 17βHSD. Only in the case of 17HSD5 the enzyme was partially purified and supernatant obtained by centrifugation of the bacterial lysate was used for testing. Systems expressing specific 17βHSD type were suspended in a reaction buffer and incubated with tritium-labeled substrates and respective cofactors at 37° C. in two parallel tests: the control arrangement (DMSO without the inhibitor) and the test arrangement (DMSO with the inhibitor). DMSO serves as a negative control in this case. After 20-30% of the substrate was converted by the activity of the enzyme to the product in a control test, both tests were terminated. Substrate and product from the test arrangement were isolated by SPE (solid phase extraction), and then separated by reverse phase HPLC. Substrate conversion was determined by integration of the signals of the substrate and product, and was expressed in %. For the purposes of the subsequent calculation of enzyme inhibition, the conversion of the control test was designated as 0% inhibition. All tests were performed in triplicates. IC50 values were subsequently determined by a standard method using the “One Ligand Binding” model of SigmaPlot kinetics module (Schustera et. al. J. Ster. Biochem. Mol. Biol. 2011, 125, 148; Möller et. al. Biioorg. Med. Chem. Lett. 2009, 19, 6740; Möller et. al. PLoS One, 2010, 5, 6, e10969).

MDA-MB-231 = test: 7 day proliferation assay, MDA-MB-231; assay type: cell-based; settings: 1 μmol·l^−1, 7 days
Protocol: as §1, §2

CCOc1ccc(CC[C@@H]2CC(=O)[C@@]3(C)CC[C@@H]4c5ccc(O)cc5CC[C@H]4[C@H]23)cc1 [Compound 12, 15β-(4-Ethoxyphenethyl)-3-hydroxy-estra-1,3,5(10)-trien-17-one]
% of survived cells compared to untreated samples, SK-OV-3 (SK-OV-3): 97%
% of survived cells compared to untreated samples, DU145 (DU145): 86%
% of survived cells compared to untreated samples, PC3 (PC3): 98%
Emax [1]: < 40%
EC50 [1]: > 10 µM
IC50 [1]: 29 µM
ER antagonism in words ([1]; testing range 10 μmol·l^−1 to 1 nmol·l^−1): antagonists of both types of receptors
IC50 (U2OS cells): > 100 µM
% of inhibition of human 17βHSD5 (human 17βHSD type 5): 80%
% of survived cells compared to untreated samples, MDA-MB-231 (MDA-MB-231): 98%

COc1ccc(CC[C@@H]2CC(=O)[C@@]3(C)CC[C@@H]4c5ccc(O)cc5CC[C@H]4[C@H]23)cc1 [Compound 9, 3-Hydroxy-15β-(4-methoxyphenethyl)-estra-1,3,5 (10)-trien-17-one]
% of survived cells compared to untreated samples, SK-OV-3 (SK-OV-3): 113%
% of survived cells compared to untreated samples, DU145 (DU145): 98%
% of survived cells compared to untreated samples, PC3 (PC3): 96%
Emax [1]: < 40%
EC50 [1]: > 10 µM
IC50 [1]: 23.5 µM
IC50 (U2OS cells): > 100 µM
% of inhibition of human 17βHSD5 (human 17βHSD type 5): 91%
% of survived cells compared to untreated samples, MDA-MB-231 (MDA-MB-231): 106%
